Usually solubility (kinetic) stands for the concentration staying in solution when a stock, usually in DMSO, is diluted into the medium.

Values after ≈ are worked out from the molar mass of the structure shown. Bounds are passed on as bounds.

For this data set the following is noted: buffer; pH 7.4; 200.0 µM.
Consider `c1ccc(NC(c2ccccc2)c2ccncc2)cc1` (centres undefined), for which the kinetic solubility came out at 25.5 µg/mL (≈ 97.9 µM).

For `O=C(NCCc1ccccc1)C1(S(=O)(=O)c2ccc(Cl)cc2)CC1`, the solubility (kinetic) came out at 33.9 µg/mL (≈ 93.2 µM).

The compound `COc1ccccc1CNC(=O)CN1C(=O)NC2(CCCCCCC2)C1=O` registered a solubility (kinetic) greater than 56 µg/mL.

The compound `Cc1nn2c(nc1=O)NNC2(C)C(C)(C)C` (centres undefined) displayed a kinetic solubility greater than 33.5 µg/mL.

In the case of `CCCN1C[C@H](CSC)C[C@@H]2c3cccc4[nH]cc(c34)C[C@H]21.CS(=O)(=O)O`, the solubility (kinetic) amounted to 2.3 µg/mL.

With `Cc1ccc(S(=O)(=O)NC2CC(C)(C)NC(C)(C)C2)cc1C`, the kinetic solubility is greater than 48.7 µg/mL.

On to `Cc1ccc([N+](=O)[O-])cc1N=C1C(=O)Nc2ccccc21`, for which the kinetic solubility was 37.4 µg/mL (≈ 133 µM).

The compound `CN(C(=O)c1ccncc1)C1CCCN(Cc2ccccc2F)C1` (centres undefined) showed a kinetic solubility greater than 49.1 µg/mL.

For the compound `O=C(NCc1ccc2c(c1)OCO2)Nc1ccc([N+](=O)[O-])cc1`, the kinetic solubility was 0.9 µg/mL (≈ 2.85 µM).

For the compound `Cc1noc(C)c1C(=O)Nc1nc2ccc(F)cc2s1`, the solubility (kinetic) was determined as 22.2 µg/mL (≈ 76.2 µM).

In the case of `N#Cc1c(-c2ccccc2)ccnc1N1CCOCC1`, the kinetic solubility was 17.6 µg/mL (≈ 66.3 µM).

`O=C(NCCCn1ccnc1)c1ccc(Cl)s1`: the solubility (kinetic) was greater than 40.5 µg/mL.

On to `O=C(Nc1ccc(S(=O)(=O)N2CCCCC2)cc1)C1CCCCC1`, for which the kinetic solubility was determined as 13.5 µg/mL (≈ 38.5 µM).

In turn, `COc1ccc(O)c(C2=Nc3ccccc3N=C(c3ccccc3)C2)c1` returned a solubility (kinetic) of less than 0.4 µg/mL.

`Cn1c(-c2ccccc2)cnc1NCc1ccccc1` showed a solubility (kinetic) of 34.9 µg/mL (≈ 133 µM).

As for `O=[N+]([O-])c1ccc(SCc2c(F)cccc2Cl)nc1`, the kinetic solubility is less than 0.3 µg/mL.

On to `Cc1cccc(S(=O)(=O)NC2CCCCCCC2)c1`, for which the solubility (kinetic) came out at 25.2 µg/mL (≈ 89.5 µM).

The compound `O=C(Nc1ccccc1F)C1COc2ccccc2O1` (centres undefined) had a solubility (kinetic) of 25.6 µg/mL (≈ 93.7 µM). The solubility kinetic values of the last two compounds are within 1.5-fold of each other.

Turning to `CCN(CC)C(=S)Nc1c(C)n(C)n(-c2ccccc2)c1=O`, the kinetic solubility was greater than 47.8 µg/mL.

Regarding `CCc1cc2cc(C)ccc2nc1SCC(=O)NC1CCCC1`, the solubility (kinetic) is less than 0.4 µg/mL.

Take `O=C(Nc1cccc(Cl)c1)Nc1c[nH]c(=O)[nH]c1=O`: the kinetic solubility is 3.4 µg/mL (≈ 12.1 µM).

`CN(C)S(=O)(=O)Nc1ccccc1F`: the solubility (kinetic) came to 30.2 µg/mL (≈ 138 µM).

As for `O=C(c1ccc(NS(=O)(=O)c2ccccc2)cc1)N1CCOCC1`, the kinetic solubility is greater than 52 µg/mL.

For the compound `COc1cc(OC)c(C2C(C#N)=C(C)NC(C)=C2C#N)c(C(=O)O)c1`, the kinetic solubility was greater than 50.9 µg/mL.

`O=S(=O)(NC(=S)NC1CCCCC1)c1ccc(Cl)cc1` came in with a kinetic solubility greater than 49.9 µg/mL.

As for `COc1ccccc1/C=C(\C#N)C(=O)c1cccn1C`, the kinetic solubility was found to be 9.7 µg/mL (≈ 36.4 µM).

`COc1cc(OC)cc(C(=O)NCC(=O)N2CCN(Cc3ccccc3)CC2)c1` registered a solubility (kinetic) greater than 59.6 µg/mL.

`CC12CCC(C(=O)Nc3ccncc3)(CC1O)C2(C)C` (centres undefined) gave a kinetic solubility greater than 41.2 µg/mL.

On to `COc1cc(OC)nc(NC(=O)NS(=O)(=O)c2ccccc2Cl)n1`, for which the kinetic solubility was 45 µg/mL (≈ 121 µM).

As for `Cc1cccc(N2CC(C)Cn3c2nc2c3c(=O)[nH]c(=O)n2C)c1` (centres undefined), the kinetic solubility was found to be 27 µg/mL (≈ 83 µM).

In the case of `Br.CC(=O)c1cccc(Nc2nc(-c3ccccc3)cs2)c1`, the solubility (kinetic) was determined as 2.1 µg/mL. Compared with the last compound, the solubility kinetic is about 13-fold lower.

Regarding `COC(=O)c1cc(C(=O)Nc2nc3ccccc3[nH]2)cc([N+](=O)[O-])c1`, the solubility (kinetic) amounted to 1.1 µg/mL (≈ 3.23 µM).

In turn, `CS(=O)(=O)N1CCC(C(=O)Nc2ccc(F)cc2)CC1` had a kinetic solubility greater than 45.1 µg/mL.

`Nc1ccc[n+](CC(=O)c2ccccc2)c1.[Br-]` came in with a kinetic solubility greater than 44 µg/mL.

With `O=C(CCCCCl)Nc1c2c(nc3ccccc13)CCC2`, the solubility (kinetic) came to 31.6 µg/mL (≈ 104 µM).

`COc1ccc(CCC(=O)NC(C)c2ccccc2)cc1OC` (centres undefined) yielded a kinetic solubility greater than 47 µg/mL.

Compound `CCCC(C)NC(=O)COC(=O)c1cccc(NS(C)(=O)=O)c1` (centres undefined) returned a kinetic solubility of 50.7 µg/mL (≈ 148 µM).

`O=C(NC1CCCCC1)c1ccc(-c2ccccc2)cc1`: the solubility (kinetic) was less than 0.6 µg/mL.

Compound `CC(=O)c1c(C)[nH]c(C(=O)COC(=O)COc2ccccc2)c1C` yielded a kinetic solubility of 16.3 µg/mL (≈ 49.5 µM).

The compound `O=C(CSc1nc2ccccc2c(=O)n1CCCO)NC1CC1` gave a solubility (kinetic) greater than 50 µg/mL.

For the compound `CCn1c2ccccc2c2cc(NC(=O)c3cc(C)on3)ccc21`, the solubility (kinetic) was found to be 2.3 µg/mL (≈ 7.2 µM).

Compound `O=c1[nH]c(O)c(C=Nc2cccc(F)c2)c(=O)[nH]1` registered a solubility (kinetic) of 4.8 µg/mL (≈ 19.3 µM). This solubility kinetic lies about 2.1-fold higher than the previous one.

The compound `COc1cc2c(cc1Cl)C(=O)C(F)(c1ccccc1)C(=O)N2` (centres undefined) showed a solubility (kinetic) of 0.8 µg/mL (≈ 2.5 µM). This solubility kinetic is about 6-fold lower than that of the compound before.

On to `O=C(Nc1ccc(Nc2ccccc2)cc1)c1ccccc1`, for which the solubility (kinetic) worked out at 1.6 µg/mL (≈ 5.55 µM). Compared with the last compound, the solubility kinetic is about 2-fold higher.

Take `O=C(NC(=S)Nc1cccnc1Cl)c1ccco1`: the kinetic solubility was determined as 32.2 µg/mL (≈ 114 µM).

Compound `S=C(NCc1cccnc1)NCc1cccnc1` had a solubility (kinetic) of 37.4 µg/mL (≈ 145 µM).

For the compound `COc1ccccc1/C=C1\C(=O)Nc2ccccc21`, the kinetic solubility turned out to be 2 µg/mL (≈ 7.96 µM). This solubility kinetic is about 19-fold lower than that of the compound before.

As to `Cc1ccc(NC(=O)CSc2cccc3cccnc23)c(C)c1`, the solubility (kinetic) is 5.2 µg/mL (≈ 16.1 µM).

Turning to `Cc1cc(C)c(S(=O)(=O)NCCc2ccncc2)c(C)c1`, the solubility (kinetic) amounted to 19.7 µg/mL (≈ 64.7 µM).

In turn, `O=C(COC(=O)C1CCCC1)Nc1cccc(Cl)c1Cl` showed a kinetic solubility of 5.9 µg/mL (≈ 18.7 µM).

For the compound `CC(C)NC(=O)CSc1nccc(-c2cccs2)n1`, the solubility (kinetic) came to 38.7 µg/mL (≈ 132 µM). This solubility kinetic lies about 6.6-fold higher than the previous one.

For `Cc1cc(Br)ccc1S(=O)(=O)NCc1ccccc1`, the solubility (kinetic) is 32.5 µg/mL (≈ 95.5 µM).

For `COc1ccccc1CNC(=O)CS(=O)(=O)Cc1ccccc1`, the solubility (kinetic) amounted to 41.4 µg/mL (≈ 124 µM).

On to `CCN(CC)C(=O)CSC(Nc1ccc(F)cc1)=C(C#N)C#N`, for which the kinetic solubility was greater than 49.9 µg/mL.

`CC(C)c1ccc(NC(=O)CCc2ccccc2)cc1`: the kinetic solubility was determined as 3.9 µg/mL (≈ 14.6 µM).

In turn, `COc1ccc(CCNC(=O)CCNC(=O)c2ccco2)cc1OC` had a kinetic solubility of 48.7 µg/mL (≈ 141 µM). This solubility kinetic lies about 12-fold higher than the previous one.

In turn, `Nc1nc(CSc2ccc(Cl)cc2)nc(N2CCCCC2)n1` came in with a kinetic solubility of 5.6 µg/mL (≈ 16.7 µM).

In turn, `COc1ccnc2c1c(=O)n(Cc1ccc(F)cc1)c(=O)n2C` came in with a kinetic solubility of 25.2 µg/mL (≈ 79.9 µM).

`COc1ccc(-c2nc(N)ncc2-c2ccc(Cl)cc2)c(O)c1` showed a kinetic solubility of less than 0.2 µg/mL.

In the case of `O=C(OCC(=O)N1CCCC1)c1cc([N+](=O)[O-])ccc1Cl`, the solubility (kinetic) was greater than 46.9 µg/mL.

Regarding `CC(=O)c1ccc(Nc2c(C)n(C)n(-c3ccccc3)c2=O)cc1`, the solubility (kinetic) is greater than 48.2 µg/mL.

`CCCCOc1ccc(C(=O)OCC(=O)c2c(N)n(C)c(=O)n(C)c2=O)cc1` yielded a kinetic solubility of 4.4 µg/mL (≈ 11.3 µM).

In turn, `CSc1ccc(CNCCCSc2ncccn2)cc1.Cl` registered a kinetic solubility greater than 51.3 µg/mL.

`Cc1ccc(C2=N/C(=C\c3ccc(F)cc3)C(=O)N2)cc1` yielded a kinetic solubility of 0.7 µg/mL (≈ 2.5 µM).

The compound `Cc1nc2oc3ccccc3c(=O)c2cc1C(=O)O` displayed a solubility (kinetic) greater than 38.3 µg/mL.

`O=S(=O)(c1c(Cl)sc(Cl)c1Br)N1CCCC1` registered a kinetic solubility of 4.4 µg/mL (≈ 12.1 µM).

In turn, `Cc1ccc(C)c(NC(=S)N2CCN(S(C)(=O)=O)CC2)c1` returned a solubility (kinetic) greater than 49.1 µg/mL.

The compound `CN(C)CCOC(=O)NC12CC3CC(CC(C3)C1)C2.Cl` registered a kinetic solubility greater than 45.4 µg/mL.

Compound `CN(C)/C=C(\C#N)S(=O)(=O)c1ccccc1` showed a kinetic solubility greater than 35.4 µg/mL.

The compound `COc1cc(/C=C/c2ccc3cccc(O)c3n2)cc(OC)c1OC` yielded a kinetic solubility of less than 0.7 µg/mL.

With `O=C(COC(=O)CSc1ccc([N+](=O)[O-])cc1)NCC1CCCO1` (centres undefined), the solubility (kinetic) is greater than 53.2 µg/mL.

Take `Cc1ccc(Nc2ncnc(N)n2)cc1`: the kinetic solubility came out at 29.5 µg/mL (≈ 147 µM).

Regarding `CCOc1cccc2cc(C(=O)N3CC(C)OC(C)C3)c(=O)oc12` (centres undefined), the kinetic solubility was greater than 49.7 µg/mL.

For the compound `COC(=O)c1sc(N2CCCCC2)c(C#N)c1N`, the solubility (kinetic) is 2.2 µg/mL (≈ 8.29 µM).
